Measured values reported in publication PMC8840081, “Phenylalanine-Based AMPA Receptor Antagonist as the Anticonvulsant Agent with Neuroprotective Activity—In Vitro and In Vivo Studies” (Molecules, 2022).
pKi: −log10 of the molar value.

Key:
[1] = tested on: SH-SY5Y neuroblastoma cells; experiment: neuroprotection against 6-OHDA-induced LDH release; type: cell-based, human; conditions: compound 50 µM
Procedure: (§1) All cell culture protocols and assay conditions were applied as we reported previously. SH-SY5Y (ATCC® CRL-2266™) cell line was purchased from ATCC (Manassas, VA, USA). IMR-32 (ATCC® CCL-127™) cell line was kindly provided by the Department of Oncogenomics, Academisch Medisch Centrum, Amsterdam, Holland. Before each test SH-SY5Y or IMR-32 cells were seeded in 96-well plates with transparent bottom at a concentration of 2.5 × 10^4 cells/well in 100 μL of respective cell culture medium and cultured for 24 h to reach 70% confluence. • Cell Viability
(§2) CytoTox-ONE™ Homogeneous Membrane Integrity Assay, which based on the LDH release, was purchased from Promega (Madison, WI, USA). SH-SY5Y or IMR-32 cells were seeded in 96-well white plates with transparent bottom. For neuroprotective studies, the cells were preincubated first for 1 h with compound 1, 8 or reference antioxidants AA, TX (all at the concentration of 50 μM) and next the neurotoxin 6-OHDA (Sigma-Aldrich, Inc., St. Louis, MO, USA) was added at final concentration of 50 μM (SH-SY5Y assay) or 200 µM (IMR-32 assay). After 24 h of incubation, the CytoTox-ONE™ was added to each well and the cells were incubated next for 10 min at room temperature. The fluorescence was measured using a microplate reader EnSpire (PerkinElmer, Waltham, MA, USA) with an excitation wavelength of 560 nm and an emission wavelength of 590 nm. All measurements were performed in triplicate and results are shown as mean ± SD. The similar studies were also performed with SH-SY5Y cells injured by 100 μM of 6-OHDA (Figure S1, Supporting Materials). • ROS Assay

[2] = tested on: IMR-32 neuroblastoma cells; experiment: neuroprotection against 6-OHDA-induced LDH release; type: cell-based, human; conditions: IMR-32, compound 50 µM, 1 h pretreatment, 200 µM 6-OHDA, 24 h
Procedure: as §1, §2

Human MAO-B = target: T1, Human MAO-B (Homo sapiens, UniProt P27338); experiment: MAO-B inhibition, Amplex Red Monoamine Oxidase kit; type: biochemical; conditions: 1 µM compound; % of full inhibition (pargyline 10 µM)
T1 construct: purchased Merck KGaA (Darmstadt, Germany)
T1 sequence (P27338 1-520): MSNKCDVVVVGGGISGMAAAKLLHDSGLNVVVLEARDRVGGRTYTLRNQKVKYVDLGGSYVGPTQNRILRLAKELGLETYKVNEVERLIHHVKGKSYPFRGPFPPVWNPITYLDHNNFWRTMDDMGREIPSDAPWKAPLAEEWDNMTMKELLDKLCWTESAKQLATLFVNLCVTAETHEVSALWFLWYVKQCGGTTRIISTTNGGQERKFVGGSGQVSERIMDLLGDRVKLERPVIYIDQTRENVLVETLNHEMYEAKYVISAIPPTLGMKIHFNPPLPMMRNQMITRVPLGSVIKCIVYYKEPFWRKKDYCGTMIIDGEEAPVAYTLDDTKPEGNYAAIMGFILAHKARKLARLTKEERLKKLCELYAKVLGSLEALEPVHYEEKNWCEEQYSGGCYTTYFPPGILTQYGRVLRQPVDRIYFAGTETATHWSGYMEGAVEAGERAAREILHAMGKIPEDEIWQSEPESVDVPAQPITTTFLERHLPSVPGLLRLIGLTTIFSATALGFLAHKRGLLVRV
Procedure: Human MAO-B was purchased from Merck KGaA (Darmstadt, Germany). The activity of compound 1 and 8 was measured in the presence of p-tyramine (200 μM). […] Firstly, inhibitors’ activity was measured in a concentration of 1 μM. […] For compounds that inhibited the enzyme by more than 50% further studies were conducted to obtain IC50 from concentration–response curves. All calculations were made in Microsoft Excel and GraphPadPrism software. All experiments were performed in duplicate and data are expressed as mean ± SEM.

[3] = oxygen radical absorbance capacity fluorescent (ORAC-FL) assay; conditions: Trolox equivalent, calculated at 5 µM of compounds and Trolox
Procedure: The ORAC-FL was performed according to procedure described in the literature. The reagents used in this assay, TX, fluorescein and 2,2′-azobis(2-amidinopropane) dihydrochloride (AAPH), were purchased from Sigma-Aldrich, Inc., St. Louis, MO, USA. The prepared ORAC-FL reagent consisted of 0.3 μM of fluorescein and 100 µM of AAPH dissolved in PBS buffer. The compounds and the reference antioxidant TX were tested at the concentration 2.5 µM and the results were compared to the blank in which no antioxidant was present. The assays were performed in black 96-well plates. The fluorescence readings were taken by a microplate reader EnSpire (PerkinElmer, Waltham, MA, USA) every minute for a duration of 240 min. The excitation wavelength was 485 nm and the emission wavelength was 520 nm. The area under the fluorescence decay curve (AUC) was calculated next by GraphPad Prism™ software (version 5.01, San Diego, CA, USA). All measurements were performed in triplicate. The TX equivalent (TE) was calculated next using the following Equation (1):TE = [(AUCsample − AUCblank)/(AUCTX − AUCblank)] × [CTX/Csample](1)

[4] = ferric reducing antioxidant power (FRAP) assay; conditions: % of ascorbic acid activity; compounds and AA at 1 mM
Procedure: The total antioxidant potential of aryl-substituted phenylalanine derivatives was determined using FRAP assay. The FRAP reagent was prepared first by mixing acetate buffer (300 mM, pH 3.6), a solution of 10 mM TPTZ (2,4,6-tripyridyl-s-triazine, Sigma-Aldrich, Inc., St. Louis, MO, USA) in 40 mM HCl and 20 mM of iron (III) chloride hexahydrate (FeCl3 × 6H2O, Chempur, Piekary Śląskie, Poland) at 10:1:1 (v/v/v). The FRAP reagent (190 μL) and 1 mM of tested compound (10 μL) was added next to each well, mixed and incubated for 30 min. The absorbance was measured using a microplate reader EnSpire (PerkinElmer, Waltham, MA USA) at 593 nm. AA (1 mM, AMARA, Kraków, Poland) was used as the reference antioxidant. The results were expressed as % of ascorbic acid activity (%AAA). Analyses were performed in triplicate. • ORAC-FL

native AMPA receptors = conditions: native AMPA receptors, rat brain membranes, mean of three experiments, cited from earlier work
[5] = tested on: SH-SY5Y neuroblastoma cells; experiment: cell viability, MTS assay; type: cell-based, human; conditions: 24 h incubation, 1–100 µM
Procedure: as §1
(§3) The CellTiter 96® AQueous Non-Radioactive Cell Proliferation Assay was purchased from Promega (Madison, WI, USA). After 24 h of cells incubation with compound 1 or 8 in the concentrations range 1–100 µM the MTS-based labeling mixture was added to each well and cells were incubated under the same conditions for 2–3 h. The absorbance was measured using a microplate reader EnSpire (PerkinElmer, Waltham, MA, USA) at 490 nm. All measurements were performed in triplicate and results are shown as mean ± SD. • Lactate Dehydrogenase Test

[6] = tested on: IMR-32 neuroblastoma cells; experiment: cell viability, MTS assay; type: cell-based, human; conditions: IMR-32, 24 h incubation, 1–100 µM
Procedure: as §1, §3

SH-SY5Y cells = experiment: ROS assay (DCFH-DA), H2O2-induced ROS accumulation; type: cell-based, human; conditions: compound 50 µM, 500 µM H2O2, 3 h
Procedure: as §1
During this assay SH-SY5Y cells were preincubated first for 1 h with 250 μM solution of DCFH-DA (Sigma-Aldrich, Inc., St. Louis, MO, USA) in HBSS buffer. After DCFH-DA was removed, cells were washed with HBSS and incubated next for 1 h with 50 μM of compound 1 or 8. Next, the H2O2 was added at final concentration 500 μM. After 3 h of incubation, the fluorescence was measured using a microplate reader EnSpire (PerkinElmer, Waltham, MA, USA) with an excitation wavelength of 486 nm and emission wavelength of 530 nm. All measurements were performed in triplicate and results are shown as mean ± SD.

With `Nc1c(Cl)cc(CC(N)C(=O)O)cc1-c1ccc(O)cc1` (centres unmarked) [Compound 8] the “6-OHDA-induced release of LDH (neuroprotection)” value (“6-OHDA-induced release of LDH” below) ([1]; 100 µM 6-OHDA) was “neuroprotective effect was not observed”, the “6-OHDA-induced release of LDH” value ([1]; 1 h pretreatment, 50 µM 6-OHDA, 24 h) was “no statistically significant neuroprotective effect” and the “6-OHDA-induced release of LDH” value [2] was “no statistically significant neuroprotective effect”. The “MAO-B inhibition, screening” value (Human MAO-B) was “No inhibitory activity”, the “ORAC (TE)” value [3] was 7.56 TE and the “FRAP (%AAA)” value [4] was 48.19 %AAA. For the same compound, the “[3H]AMPA Ki” value (native AMPA receptors) was “lack of detectable AMPA receptor affinity”, the pKi (native AMPA receptors; read-out: [3H]AMPA Ki) was less than 4.00 and the cell viability [5] was “no influence on cell viability”. For the same compound, the cell viability [6] was “no influence on cell viability” and the “intracellular ROS level” value (SH-SY5Y cells) was “statistically significant decrease”.
